Where two headings read alike, the source gives them in different places. Where a SMILES comes first, the peptide text is derived from it. [ ]: non-standard residue; d: D form. Nle = CCCC[C@H](N)C(=O)O
Tests used:
mouse BMP2 promoter = assay: High throughput screen (ABA assay): BMP2 promoter-luciferase reporter in 2T3-BMP-2-LUC osteoblast cells; format: cell-based; settings: for EC50: Mus musculus, Osteoblast, read-out: Luciferase Activity (ED50-μM)
Text: 1995, the entire contents of which are incorporated herein by reference. This assay is also described as a portion of a study of immortalized murine osteoblasts (derived from a mouse expressing a transgene composed of a BMP2 promoter driving expression of T-antigen) in Ghosh-Choudhery, N., et al., Endocrinology (1996) 137:331-39. In this study, the immortalized cells were stably transfected with a plasmid containing a luciferase reporter gene driven by a mouse BMP2 promoter (−2736/114 bp), and responded in a dose-dependent manner to recombinant human BMP2.
Briefly, the assay utilizes cells transformed permanently or transiently with constructs in which the promoter of a bone morphogenetic protein, specifically BMP2 or BMP4, is coupled to a reporter gene, typically luciferase. These transformed cells are then evaluated for the production of the reporter gene product; compounds that activate the BMP promoter will drive production of the reporter protein, which can be readily assayed. Many thousands of compounds have been subjected to this rapid screening technique, and only a very small percentage are able to elicit a level of expression of reporter gene 5-fold greater than that produced by vehicle. […] The active compounds (“BMP promoter-active compounds” or “active compounds”) are useful in promoting bone or cartilage growth, and thus in the treatment of vertebrates in need of bone or cartilage growth.
Thousands of compounds have been tested in the assay system set forth in U.S. Ser. No. 08/458,434, filed 2 Jun. 1995, and incorporated herein by reference. […] In this screen, the standard positive control was the compound 59-0008 (also denoted “OS8”), which is of the formula: [drawing 22]
In more detail, the 2T3-BMP-2-LUC cells, a stably transformed osteoblast cell line described in Ghosh-Choudhury et al. Endocrinology (1996) 137:331-39, referenced above, was employed. The cells were cultured using α-MEM, 10% FCS with 1% penicillin/streptomycin and 1% glutamine (“plating medium”), and were split 1:5 once per week. For the assay, the cells were resuspended in a plating medium containing 4% FCS, plated in microtiter plates at a concentration of 5×10^3 cells (in 50 μl)/well, and incubated for 24 hours at 37° C. in 5% CO2. To initiate the assay, 50 μl of the test compound or the control in DMSO was added at 2× concentration to each well, so that the final volume was 100 μl. The final serum concentration was 2% FCS, and the final DMSO concentration was 1%. Compound 59-0008 (10 μM) was used as a positive control.
The treated cells were incubated for 24 hours at 37° C. and 5% CO2. The medium was then removed, and the cells were rinsed three times with PBS. After removal of excess PBS, 25 μl of 1× cell culture lysing reagent (Promega #E153A) was added to each well and incubated for at least ten minutes. Optionally, the plates/samples could be frozen at this point. To each well was added 50 μl of luciferase substrate (Promega #E152A; 10 ml Promega luciferase assay buffer per 7 mg Promega luciferase assay substrate). Luminescence was measured on an automated 96-well luminometer, and was expressed as either picograms of luciferase activity per well or as picograms of luciferase activity per microgram of protein.
Accordingly, other tested compounds can be evaluated at various concentrations, and the results compared to the results obtained for 59-0008 at 10 μM (which value would be normalized to 100). Alternatively, the reactivity of a compound to be tested can be compared directly to a negative control containing no compound.

[1] = biological target: T1, 20S thermophila proteasome (Methanosarcina thermophila, UniProt Q9P992); assay: biochemical
T1 construct: purchased CalBiochem, San Diego, Calif
T1 sequence (Q9P992 10-210): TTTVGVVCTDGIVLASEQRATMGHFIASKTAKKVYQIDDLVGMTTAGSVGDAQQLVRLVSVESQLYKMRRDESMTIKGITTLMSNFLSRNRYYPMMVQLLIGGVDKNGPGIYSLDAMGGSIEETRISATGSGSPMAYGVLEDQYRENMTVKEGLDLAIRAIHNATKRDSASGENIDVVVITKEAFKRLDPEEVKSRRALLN
T1 sequence (Q59565 1-247 partner): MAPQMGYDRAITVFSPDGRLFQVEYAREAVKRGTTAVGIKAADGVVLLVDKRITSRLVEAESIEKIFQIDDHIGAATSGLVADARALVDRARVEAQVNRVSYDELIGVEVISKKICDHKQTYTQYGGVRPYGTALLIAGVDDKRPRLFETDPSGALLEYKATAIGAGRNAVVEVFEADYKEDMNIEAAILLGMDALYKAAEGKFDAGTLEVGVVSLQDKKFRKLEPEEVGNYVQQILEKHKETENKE
Experimental: The assay involves incubating the potential inhibitor with 20S thermophila proteasomes which, in purified form, are commercially available, with a fluorogenic peptide substrate. The presence of an inhibitor will reduce the amount of fluorescence generated by the action of the proteasome fraction on the fluorogenic peptide. This assay is described in further detail in Coux, O., et al., N Rev Biochem (1996) 65:801; Adams, J., et al., Cancer Res (1999) 59:2615; and Craiu, A., et al., J Biol Chem (1997) 272:13437. Further reports are set forth in Hilt, W., et al., Trans Biochem Sci (1996) 21:96; Peters, J., Trends Biochem Sci (1994) 19:377; Maupin-Furlow, J. A., et al., J Biol Chem (1995) 270:28617; and Jensen, T. J., et al., Cell (1995) 83:129. Fluorogenic substrates and purified proteasomes are available, for example, from CalBiochem, San Diego, Calif.
Purified 20S thermophila proteasomes and the fluorogenic peptide substrate Suc-Leu-Leu-Val-Tyr-AMC (SEQ ID NO:3) are available from CalBiochem, San Diego, Calif. Briefly, serial dilutions of the inhibitor to be tested were mixed with proteasome solution at a concentration of proteasome of 0.01 mg/ml. After 30 min incubation at 37° C., substrate solution at a final concentration of 25-30 μg/ml was added and the mixture incubated at 37° C. and then read at 15 min, 30 min, and 60 min in a Fluoroscan instrument. The percentage diminution in fluorescence in the presence as compared to the absence of inhibitor is then calculated.

hair follicles = assay: Induction of anagen in hair follicles in vivo (Example 12); design: species or system C57 black mice
Experimental: Inhibitors of the proteasomal chymotrypsin-like activity were treated for their capacity to induce transit of hair follicles into anagen in vivo in C57 black mice eight weeks of age.

proteasomal activity = settings: cited from earlier work
[2] = system: hair follicles of skin explants; assay: Cultured skin explants from 5 day old mice, hair follicle diameter and elongation (Example 11); format: cell-based, C3H/HeS1c mice; settings: 10 μM; 72 hours
Experimental: Cultured skin explants from 5 day old mice cultured for 72 hours were treated with proteasome inhibitors, non-proteasomal proteases and non-proteasomal inhibitors of NF-κB and effects on hair follicle diameter and follicle elongation were determined according to the method of Kamiya, T., et al., J Derm Sci (1998) 17:54-60. Skin slices from the dorsal skin of 5 day old C3H/HeS1c mice were cultured in 1 ml of αMEM and 0.1% BSA for 72 hours and then assessed for changes in hair follicle diameter and hair elongation under an inverted microscope, using image analysis. […] Thus, the chymotrypsin-like activity of the proteasome is the catalytic component of the proteasome that is responsible for the effects of these compounds on hair follicle differentiation and hair growth. Only proteasome inhibitors had discernable effects on these parameters.

neonatal mouse calvaria = assay: Neonatal mouse calvaria assay (in vitro / ex vivo) for bone formation; format: cell-based, ICR Swiss white mouse; settings: for EC50: Mus musculus, read-out: Bone Formation (ED50-μM)
Experimental: An assay for bone resorption or bone formation is similar to that described by Gowen M. & Mundy G., J Immunol (1986) 136:2478-82. Briefly, four days after birth, the front and parietal bones of ICR Swiss white mouse pups are removed by microdissection and split along the sagittal suture. In an assay for resorption, the bones are incubated in BGJb medium (Irvine Scientific, Santa Ana, Calif.) plus 0.02% (or lower concentration) β-methylcyclodextrin, wherein the medium also contains test or control substances. The medium used when the assay is conducted to assess bone formation is Fitton and Jackson Modified BGJ Medium (Sigma) supplemented with 6 μg/ml insulin, 6 μg/ml transferrin, 6 ng/ml selenous acid, calcium and phosphate concentrations of 1.25 and 3.0 mM, respectively, and ascorbic acid to a concentration of 100 μg/ml is added every two days. The incubation is conducted at 37° C. in a humidified atmosphere of 5% CO2 and 95% air for 96 hours.
Following this, the bones are removed from the incubation media and fixed in 10% buffered formalin for 24-48 hours, decalcified in 14% EDTA for 1 week, processed through graded alcohols; and embedded in paraffin wax. Three […] sections of the calvaria are prepared. Representative sections are selected for histomorphometric assessment of bone formation or bone resorption. Bone changes are measured on sections cut 200 μm apart. Osteoblasts and osteoclasts are identified by their distinctive morphology.
Selected compounds and appropriate controls were assayed in vitro (ex vivo) for bone formation activity (described above in “Techniques for Neonatal Mouse Calvaria Assay (in vitro)). Histomorphometrical assessments of ex vivo calvaria were carried out using an OsteoMetrics bone morphometry measurement program, according to the manufacturer's instructions. Measurements were determined using either a 10- or 20-fold objective with a standard point counting eyepiece graticule.
New bone formation was determined (using a 10× objective) by measuring the new bone area formed in one field in 3 representative sections of each bone (4 bones per group). Each measurement was carried out ½ field distance from the end of the suture. Both total bone and old bone area were measured. Data were expressed as new bone area in μm^2.
Osteoblast numbers are determined by point counting. The number of osteoblast cells lining the bone surface on both sides of the bone are counted in one field using a 20× objective. Data are expressed as osteoblast numbers/mm of bone surface. […]

[3] = read-out: Proteasome Activity (ED50-μM)

SMILES: COc1cc(/C=C/C(=O)CC(=O)/C=C/c2ccc(O)c(OC)c2)ccc1O [curcumin]
- activity in the ABA assay compared with proteasome inhibitors (mouse BMP2 promoter): less active

SMILES: CCCC[C@@H](C=O)NC(=O)[C@H](CC(C)C)NC(=O)[C@H](CC(C)C)NC(C)=O [ALLN, N-Acetyl-Leu-Leu-Nle-CHO] (Ac-Leu-Leu-[Nle]-aldehyde)
- EC50 [1, 3]: 1.5 µM
- EC50 (mouse BMP2 promoter): 10 µM
- effect on hair follicles (hair follicles; dose not given): had no effect on hair follicles
- effects on proteasomal activity (proteasomal activity): no effects on proteasomal activity

SMILES: S=C(S)N1CCCC1 [PDTC, 1-pyrrolidinecarbodithioic acid]
- response in the high throughput luciferase screen (mouse BMP2 promoter): do not give promising responses
- effect on follicle growth [2]: did not significantly affect follicle growth
- effect on hair follicles (hair follicles; dose not given): had no effect on hair follicles
- new bone formation in the in vitro calvarial assay (neonatal mouse calvaria): appeared negative
- effects on proteasomal activity (proteasomal activity): no effects on proteasomal activity

SMILES: O=C(NC1=CC(=O)c2ccccc2C1=O)c1ccccc1 [PPM-18, 2-benzoylamino-1,4-naphthoguinone]
- effect on hair follicles (hair follicles; dose not given): had no effect on hair follicles
- effects on proteasomal activity (proteasomal activity): no effects on proteasomal activity

SMILES: COc1cc(CNC(=O)CCCC/C=C/C(C)C)ccc1O [Capsaicin]
- EC50 [1]: 30 µM
- activity in the ABA assay compared with proteasome inhibitors (mouse BMP2 promoter): less active
- response in the high throughput luciferase screen (mouse BMP2 promoter): do not give promising responses
- new bone formation in the in vitro calvarial assay (neonatal mouse calvaria): appeared negative

SMILES: CSCCC(C=O)NC(=O)C(CC(C)C)NC(=O)C(CC(C)C)NC(C)=O (stereo not drawn) [N-Acetyl-Leu-Leu-Meth-CHO, N-Acetyl-Leu-Leu-Met-CHO] (Ac-Leu-Leu-Met-aldehyde; configuration not given here)
- EC50 [1]: 4 µM

SMILES: CC(=O)CCCCn1c(=O)c2c(ncn2C)n(C)c1=O [PTX, pentoxyfilline]
- lowest concentration enhancing new bone formation (as low as) (neonatal mouse calvaria): 0.1 μm
- new bone formation in the in vitro calvarial assay (neonatal mouse calvaria): active
- increase of new bone area (neonatal mouse calvaria; 100 μm): ~3 times that of control
- enhancement of new bone area over control (neonatal mouse calvaria; concentration of 10 μm): over 100%

SMILES: CC(C)C[C@H](NC(=O)[C@H](CC(C)C)NC(=O)[C@H](CC(C)C)NC(=O)OCc1ccccc1)B(O)O [MG262]
- EC50 [1, 3]: 0.07 µM
- EC50 (mouse BMP2 promoter): 0.1 µM
- EC50 (neonatal mouse calvaria; calvarial assay in vitro): 0.1 µM

SMILES: CC[C@H](CO)Nc1nc(NCc2ccccc2)c2ncn(C(C)C)c2n1 [roscovitine]
- response in the high throughput luciferase screen (mouse BMP2 promoter): do not give promising responses
- effect on follicle growth [2]: did not significantly affect follicle growth
- new bone formation in the in vitro calvarial assay (neonatal mouse calvaria): appeared negative

SMILES: CN1C(=O)C23CC4=CC=C[C@H](O)C4N2C(=O)C1(CO)SS3 (stereo partly shown) [Gliotoxin]
- response in the high throughput luciferase screen (mouse BMP2 promoter): do not give promising responses
- new bone formation in the in vitro calvarial assay (neonatal mouse calvaria): did demonstrate the ability to stimulate bone growth
- EC50 (neonatal mouse calvaria): 10 µM

SMILES: CC[C@H](C)C(=O)O[C@H]1C[C@@H](C)C=C2C=C[C@H](C)[C@H](CC[C@@H]3C[C@@H](O)CC(=O)O3)[C@H]21 [lovastatin]
- effect on hair follicles (hair follicles; injected locally into the subcutaneous tissue in sufficient concentrations to cause local periosteal bone formation): had no effect on hair follicles
- effects on proteasomal activity (proteasomal activity): no effects on proteasomal activity

SMILES: c1ccc(N=NC2=NNc3ccccc3S2)cc1 [59-0008, 3-phenylazo-1H-4,1,2-benzothiadiazine]
- concentration of maximal reactivity (mouse BMP2 promoter): 3 to 10 µM

SMILES: C=C(C)[C@]12C[C@@H](C)[C@@]34O[C@](Cc5ccccc5)(O[C@@H]1[C@@H]3C=C(COC(=O)Cc1ccc(O)c(OC)c1)C[C@]1(O)C(=O)C(C)=C[C@@H]41)O2 [resiniferatoxin]
- activity in the ABA assay compared with proteasome inhibitors (mouse BMP2 promoter): less active

Reference: patent US6838436B1, “Inhibitors of proteasomal activity for stimulating bone growth” (Osteoscreen Inc., priority 1998, dated 2005)
